According to patent publication US20080096932A1, “3-Pyridinylethylcarboxamide Derivatives as Fungicides” (priority 2004, published 2008):

Assays:
[1] = test system: Alternaria brassicae; test: in vivo test on Alternaria brassicae (Leaf spot of crucifers); conditions: for effectiveness on Alternaria brassicae: at 330 ppm, comparison compounds of WO 01/11965
Protocol: in vivo test on Alternaria brassicae (Leaf spot of crucifers)
The active ingredient tested is prepared by potter homogenisation in a concentrated suspension type formulation at 100 g/l. This suspension is then diluted with water to obtain the desired active material concentration.
Radish plants (Pernot variety) in starter cups, sown on a 50/50 peat soil-pozzolana substrate and grown at 18-20° C., are treated at the cotyledon stage by spraying with the aqueous suspension described above.
Plants, used as controls, are treated with an aqueous solution not containing the active material.
After 24 hours, the plants are contaminated by spraying them with an aqueous suspension of Alternaria brassicae spores (40,000 spores per cm^3). The spores are collected from a 12 to 13 days-old culture.
The contaminated radish plants are incubated for 6-7 days at about 18° C., under a humid atmosphere.
Grading is carried out 6 to 7 days after the contamination, in comparison with the control plants.

[2] = test system: Botrytis cinerea; test: effectiveness on Botrytis cinerea; format: in vivo; conditions: at 330 ppm; comparison compounds of WO 01/11965
[3] = test system: Peronosporaparasitica; test: efficacy against Peronospora parasitica; format: in vivo; conditions: at 330 ppm; comparison compound of WO 01/11965

| Compound | protection (good (at least 50%) or total) ([1]; 330 ppm, radish plants sprayed 24 h before contamination, grading 6 to 7 days after contamination vs control plants) | effectiveness on Alternaria brassicae [1] | effectiveness on Botrytis cinerea [2] | efficacy against Peronospora parasitica [3] |
| --- | --- | --- | --- | --- |
| Cn1cc(C(=O)NCCc2ccc(C(F)(F)F)nc2)c(C(F)(F)F)n1 [Compound A-1, N-[2-(6-trifluoromethyl-3-pyridinyl)ethyl]-1-methyl-3-(trifluoromethyl)-1H-pyrazole-4-carboxamide] | at least 50% | – | – | – |
| O=C(Cc1cccs1)NCc1ncc(C(F)(F)F)cc1Cl [compound 101, N-{[3-chloro-5-(trifluoromethyl)-2-pyridinyl]methyl}-5-thienylacetamide] | – | poor efficacy | no efficacy | no efficacy |
| CCNC(=O)C(Cc1ncc(C(F)(F)F)cc1Cl)NC(=O)c1ccccc1 (stereo not shown) [compound 304, N-{1-ethylcarbamoyl-2-[3-chloro-5-(trifluoromethyl)-2-pyridinyl]-ethyl}-benzamide] | – | – | zero effectiveness | – |
| CCNC(=O)C(Cc1ncc(C(F)(F)F)cc1Cl)NC(=O)c1ccc(Cl)cc1 (stereo not shown) [compound 306, N-{1-ethylcarbamoyl-2-[3-chloro-5-(trifluoromethyl) -2-pyridinyl]ethyl}-4-chlorobenzamide] | – | – | zero effectiveness | – |
| CCNC(=O)C(Cc1ncc(C(F)(F)F)cc1Cl)NC(=O)c1cccc([N+](=O)[O-])c1 (stereo not shown) [compound 307, N-{1-ethylcarbamoyl-2-[3-chloro-5-(trifluoromethyl)-2-pyridinyl]ethyl}-3-nitrobenzamide] | – | poor effectiveness | zero effectiveness | – |
| CCNC(=O)C(Cc1ncc(C(F)(F)F)cc1Cl)NC(=O)c1ccccc1Br (stereo not shown) [compound 310, N-{1-ethylcarbamoyl-2-[3-chloro-5-(trifluoromethyl)-2-pyridinyl]ethyl}-2-bromobenzamide] | – | – | zero effectiveness | – |
| CNC(=O)C(Cc1ncc(C(F)(F)F)cc1Cl)NC(=O)c1ccccc1 (stereo not shown) [compound 314, N-{1-methylcarbamoyl-2-[3-chloro-5-(trifluoromethyl) -2-pyridinyl]ethyl}-benzamide] | – | – | zero effectiveness | – |
| CNC(=O)C(Cc1ncc(C(F)(F)F)cc1Cl)NC(=O)c1ccc(OC)cc1 (stereo not shown) [compound 315, N-{1-methylcarbamoyl-2-[3-chloro-5-(trifluoromethyl)-2-pyridinyl]ethyl}-4-methoxybenzamide] | – | – | zero effectiveness | – |
| CNC(=O)C(Cc1ncc(C(F)(F)F)cc1Cl)NC(=O)c1ccc(-c2ccccc2)cc1 (stereo not shown) [compound 316, N-{1-methylcarbamoyl-2-[3-chloro-5-(trifluoromethyl)-2-pyridinyl]-ethyl}-4-phenylbenzamide] | – | poor effectiveness | zero effectiveness | – |
